According to ChEMBL document CHEMBL1153695, “Asymmetrical diaromatic guanidinium/2-aminoimidazolinium derivatives: synthesis and DNA affinity” (J Med Chem, 2009):

Key:
Type in all cases: nucleic-acid assay
Nucleic Acid [1] = test: Binding affinity to Salmon sperm DNA in phosphate buffer assessed as change in melting temperature; details: Oncorhynchus
Nucleic Acid [2] = test: Binding affinity to Poly(dA.dT)2 DNA in phosphate buffer assessed as change in melting temperature
Nucleic Acid [3] = test: Binding affinity to Poly(dA).Poly(dT) DNA in MES buffer assessed as change in melting temperature

Compound	ΔTm (Nucleic Acid [1])	ΔTm (Nucleic Acid [2])	ΔTm (Nucleic Acid [3])
N=C(N)Nc1ccc(C(=O)c2ccc(N)cc2)cc1	0 °C		
Nc1ccc(Cc2ccc(N=C3NCCN3)cc2)cc1	3 °C		
N=C(N)Oc1ccc(Sc2ccc(O)cc2)cc1	2 °C		
N=C(N)Nc1ccc(C(=O)c2ccc(N=C3NCCN3)cc2)cc1	8 °C	15 °C	32 °C
N=C(N)Nc1ccc(NC(=O)Nc2ccc(N)cc2)cc1	2 °C		
Cn1cc(NC(=O)c2cc(NC(=O)CNC(=N)N)cn2C)cc1C(=O)NCCC(=N)N		39 °C	
N=C(N)Oc1ccc(Oc2ccc(O)cc2)cc1	4 °C		
Nc1ccc(Nc2ccc(N=C3NCCN3)cc2)cc1	2 °C		
N=C(N)Oc1ccc(Cc2ccc(OC(=N)N)cc2)cc1	4 °C		
N=C(N)Nc1ccc(Sc2ccc(N=C3NCCN3)cc2)cc1	7 °C	9 °C	23 °C
Nc1ccc(N2CCN(c3ccc(N=C4NCCN4)cc3)CC2)cc1	1 °C		
N=C(N)Nc1ccc(Cc2ccc(N=C3NCCN3)cc2)cc1	6 °C	6 °C	17.2 °C
N=C(N)Nc1ccc(NC(=O)Nc2ccc(N=C3NCCN3)cc2)cc1	11.5 °C	14 °C	30 °C
N=C(N)Oc1ccc(Cc2ccc(O)cc2)cc1	2 °C		
N=C(N)Nc1ccc(CCc2ccc(N=C3NCCN3)cc2)cc1	8 °C	16 °C	29 °C
N=C(N)Oc1ccc(Oc2ccc(OC(=N)N)cc2)cc1	6 °C		
Nc1ccc(Oc2ccc(N=C3NCCN3)cc2)cc1	0 °C		
N=C(N)Nc1ccc(Nc2ccc(N)cc2)cc1	2 °C		
N=C(N)Nc1ccc(Nc2ccc(N=C3NCCN3)cc2)cc1	12 °C	17.5 °C	35.1 °C
Nc1ccc(NC(=O)Nc2ccc(N=C3NCCN3)cc2)cc1	4 °C		
N=C(N)Nc1ccc(N2CCN(c3ccc(N=C4NCCN4)cc3)CC2)cc1	9 °C	15 °C	31.1 °C
N=C(N)Nc1ccc(Oc2ccc(N=C3NCCN3)cc2)cc1	7 °C	10 °C	25.3 °C
Nc1ccc(CCc2ccc(N=C3NCCN3)cc2)cc1	0 °C		
N=C(N)Oc1ccc(Sc2ccc(OC(=N)N)cc2)cc1	5 °C		
N=C(N)Nc1ccc(Cc2ccc(N)cc2)cc1	3 °C		
N=C(N)Nc1ccc(Sc2ccc(N)cc2)cc1	2 °C		
Nc1ccc(Sc2ccc(N=C3NCCN3)cc2)cc1	0 °C		
N=C(N)Nc1ccc(Oc2ccc(N)cc2)cc1	2 °C		
N=C(N)Nc1ccc(CCc2ccc(N)cc2)cc1	0 °C		
N=C(N)Nc1ccc(N2CCN(c3ccc(N)cc3)CC2)cc1	2 °C		
